In paper PMC8224038, “Anti-Leukemic Properties of Aplysinopsin Derivative EE-84 Alone and Combined to BH3 Mimetic A-1210477” (Marine Drugs, 2021):
Read-outs that look alike come from different tables or passages of the source.

Key:
[1] = tested on: K562 cells; assay: Cell cycle analysis (PI, FACS); assay type: cell-based, human
Experimental: Cells were collected and fixed in 70% ethanol. DNA was stained with propidium iodide (PI) solution (1 μg/mL, Sigma-Aldrich, St. Louis, MO, USA) in 1XPBS (Biosesang, Seongnam, Korea) for 30 min at 37 °C, supplemented with RNase A (100 μg/mL, Roche, Basel, Switzerland). Samples were analyzed by flow cytometry using the FACSCalibur^TM system, Becton Dickinson (BD) Biosciences (San Jose, CA, USA). Data were recorded statistically (10,000 events/sample) using the Cell Quest software (BD Biosciences) and analyzed using Flow-Jo 8.8.5 software (Tree Star, Inc., Ashland, OR, USA).

[2] = tested on: zebrafish embryos; assay: Zebrafish toxicity; settings: 24 h exposure
Experimental: For toxicity assays, embryos were treated with 0.003% phenylthiourea (PTU) 14 h before the assay to remove pigmentation. Then, 2 h before the assay, the embryo’s shell was eliminated and then treated for up to 24 h with aplysinopsin compounds at indicated concentrations in 24-well plates. Viability and abnormal development were assessed after 24 h of treatment under light microscopy (Carl Zeiss Stereomicroscope DV4, Seoul, Korea). Pictures were taken by fixing embryos onto a glass slide with 3% methylcellulose (Sigma-Aldrich).

[3] = tested on: K562; assay: Seahorse XFp Cell Mito Stress test (OCR); assay type: cell-based, human; settings: K562, EE-84 30 µM, 72 h, vs control
Experimental: (§1) The oxygen consumption rate (OCR) was measured using a Seahorse XFp Cell Mito Stress Assay (#103010-100, Agilent Technologies, Seoul, Korea) ran on a Seahorse XFp analyzer (Agilent Technologies, Seoul, Korea) according to the manufacturer’s instructions. […] Before measurements, plates were equilibrated in a CO2-free incubator at 37 °C for 1 h. The analysis was performed using 1.5 µM oligomycin, 0.5 µM carbonyl cyanide-4-(trifluoromethoxy)phenylhydrazone (FCCP), and 1 µM rotenone/antimycin A as indicated. Data were analyzed using the Seahorse XF Cell Mito Stress Test report generator software (Agilent). The extracellular acidification rate (ECAR) was measured in response to the sequential injection of 10 mM glucose, 2 µM oligomycin (H+-ATP-synthase inhibitor), and 50 mM 2-deoxy-d-glucose (2DG) (hexokinase inhibitor) to detect non-glycolytic acidification, glycolysis, maximal glycolytic capacity, and glycolytic reserve using a Seahorse XFp analyzer with a Glycolysis Stress Test kit (Agilent, Santa Clara, CA, USA).

[4] = tested on: K562; assay: Seahorse XFp Glycolysis Stress test (ECAR); assay type: cell-based, human; settings: K562, EE-84 50 μM, 72 h, vs control
Experimental: as §1

[5] = tested on: K562IR cells; assay: Seahorse XFp Glycolysis Stress test (ECAR); assay type: cell-based, human; settings: EE-84 100 μM, 72 h
Experimental: as §1

[6] = tested on: K562 cells; assay: Annexin V APC/PI staining quantified by FACS; assay type: cell-based, human
Source text: The percentage of apoptotic cells was quantified as the fraction of cells showing fragmented nuclei, as assessed by fluorescence microscopy (Nikon, Tokyo, Japan) after staining with Hoechst 33342 (Sigma-Aldrich) and propidium iodide (Sigma-Aldrich). In addition, apoptosis was confirmed by Annexin V APC (Biolegend, 640919)/propidium iodide (BD Biosciences, 556547) staining and fluorescence-activated cell sorter (FACS) analysis according to the manufacturer protocol (BD Biosciences, 556547).

[7] = tested on: K562IR cells; assay: Trypan blue exclusion test, viability; assay type: cell-based; settings: Homo sapiens, 24 h
Experimental: (§2) Cell proliferation and viability were assessed by the trypan blue exclusion method (Lonza), and viable cells were counted using a hematocytometer (Marienfeld, Lauda-Königshofen, Germany). Differential toxicity was calculated by comparing the viability of RPMI 1788 cells to the viability of cancer cells (normal/cancer cells). The difference in viability was expressed in terms of fold change.

[8] = tested on: RPMI 1788; assay: Trypan blue exclusion test, viability (IC50) in noncancerous cells; assay type: cell-based, human; settings: for IC50: Homo sapiens, read-out: IC50 (50% cell death)
Experimental: as §2

[9] = tested on: K562 cells; assay: Trypan blue exclusion test, proliferation (GI50); assay type: cell-based, human; settings: Homo sapiens
Experimental: as §2

[10] = tested on: K562 cells; assay: Trypan blue exclusion test, viability; assay type: cell-based, human; settings: Homo sapiens
Experimental: as §2

[11] = tested on: K562IR; assay: Trypan blue exclusion test, proliferation (GI50); assay type: cell-based; settings: Homo sapiens
Experimental: as §2

[12] = tested on: KBM5; assay: Trypan blue exclusion test, proliferation (GI50); assay type: cell-based; settings: Homo sapiens
Experimental: as §2

[13] = tested on: MEG01; assay: Trypan blue exclusion test, proliferation (GI50); assay type: cell-based; settings: Homo sapiens, MEG-01
Experimental: as §2

[14] = tested on: KBM5IR; assay: Trypan blue exclusion test, proliferation (GI50); assay type: cell-based
Experimental: as §2

[15] = K562, 24 h, EE-84 30 μM, with z-VAD-fmk (50 μM)

COc1ccc2c(c1)c(C(=O)C(=O)Nc1sc3c(c1C(C)=O)CC(C)CC3)cn2Cc1ccccc1 (stereo not shown) [EE-84, N-(3-Acetyl-4,5,6,7-Tetrahydro-5-Methylbenzo[b]Thiophen-2-yl)-2-(1-Benzyl-5-Methoxy-1H-Indol-3-yl)-2-Oxoacetamide]
G1 cell cycle phase ([1]; K562, 48 h, EE-84 10 μM): 59.59 ± 1.12%
G2/M cell cycle phase ([1]; K562, 48 h, EE-84 10 μM): 18.64 ± 0.75%
S cell cycle phase ([1]; K562, 48 h, EE-84 10 μM): 20.30 ± 1.68%
Sub-G1 cell cycle phase ([1]; K562, 48 h, EE-84 10 μM): 1.48 ± 0.81%
G1 cell cycle phase ([1]; K562, 48 h, EE-84 30 μM): 61.11 ± 1.58%
G2/M cell cycle phase ([1]; K562, 48 h, EE-84 30 μM): 13.25 ± 0.32%
S cell cycle phase ([1]; K562, 48 h, EE-84 30 μM): 20.99 ± 0.83%
Sub-G1 cell cycle phase ([1]; K562, 48 h, EE-84 30 μM): 4.65 ± 2.42%
G1 cell cycle phase ([1]; K562, 48 h, EE-84 50 μM): 58.40 ± 2.81%
G2/M cell cycle phase ([1]; K562, 48 h, EE-84 50 μM): 12.86 ± 1.46%
S cell cycle phase ([1]; K562, 48 h, EE-84 50 μM): 20.41 ± 1.84%
Sub-G1 cell cycle phase ([1]; K562, 48 h, EE-84 50 μM): 8.34 ± 1.51%
G1 cell cycle phase ([1]; K562, 72 h, EE-84 10 μM): 60.83 ± 2.33%
G2/M cell cycle phase ([1]; K562, 72 h, EE-84 10 μM): 17.57 ± 0.90%
S cell cycle phase ([1]; K562, 72 h, EE-84 10 μM): 17.52 ± 4.24%
Sub-G1 cell cycle phase ([1]; K562, 72 h, EE-84 10 μM): 4.08 ± 2.80%
G1 cell cycle phase ([1]; K562, 72 h, EE-84 30 μM): 55.09 ± 2.26%
G2/M cell cycle phase ([1]; K562, 72 h, EE-84 30 μM): 17.03 ± 2.69%
S cell cycle phase ([1]; K562, 72 h, EE-84 30 μM): 21.55 ± 1.64%
Sub-G1 cell cycle phase ([1]; K562, 72 h, EE-84 30 μM): 6.33 ± 0.74%
G1 cell cycle phase ([1]; K562, 72 h, EE-84 50 μM): 52.03 ± 2.99%
G2/M cell cycle phase ([1]; K562, 72 h, EE-84 50 μM): 15.08 ± 2.89%
S cell cycle phase ([1]; K562, 72 h, EE-84 50 μM): 19.85 ± 1.33%
Sub-G1 cell cycle phase ([1]; K562, 72 h, EE-84 50 μM): 13.03 ± 1.19%
heart rate of zebrafish [2]: moderate decrease
growth (relative body length) of zebrafish ([2]; concentrations up to 100 µM): did not affect
survival rate of zebrafish ([2]; concentrations up to 100 µM): did not affect
morphological changes of zebrafish ([2]; embryos 24 hpf, different concentrations): No significant morphological changes
oxygen consumption rate (OCR) [3]: significantly decreased
glycolysis and glycolytic capacity (ECAR) [4]: significantly decreased
glycolytic capacity of ECAR [5]: significantly decreased
AnnV+/PI+ (%) ([6]; K562, 24 h, EE-84 30 μM): 2.98 ± 0.23%
AnnV+/PI− (%) ([6]; K562, 24 h, EE-84 30 μM): 6.00 ± 1.43%
Combined cell death (%) ([6]; K562, 24 h, EE-84 30 μM): 8.98 ± 2.14%
AnnV+/PI+ (%) [6, 15]: 3.13 ± 0.21%
AnnV+/PI− (%) [6, 15]: 5.33 ± 1.35%
Combined cell death (%) [6, 15]: 8.46 ± 1.55%
AnnV+/PI+ (%) ([6]; K562, EE-84 10 μM (Figure 3B)): 2.50 ± 0.62%
AnnV+/PI− (%) ([6]; K562, EE-84 10 μM (Figure 3B)): 7.05 ± 1.46%
Combined cell death (%) ([6]; K562, EE-84 10 μM (Figure 3B)): 9.55 ± 3.22%
AnnV+/PI+ (%) ([6]; K562, EE-84 20 μM (Figure 3B)): 4.40 ± 0.94%
AnnV+/PI− (%) ([6]; K562, EE-84 20 μM (Figure 3B)): 5.60 ± 1.98%
Combined cell death (%) ([6]; K562, EE-84 20 μM (Figure 3B)): 10.00 ± 0.85%
AnnV+/PI+ (%) ([6]; K562, EE-84 30 μM (Figure 3B)): 7.51 ± 2.70%
AnnV+/PI− (%) ([6]; K562, EE-84 30 μM (Figure 3B)): 6.65 ± 2.29%
Combined cell death (%) ([6]; K562, EE-84 30 μM (Figure 3B)): 14.16 ± 0.61%
AnnV+/PI+ (%) ([6]; K562, EE-84 40 μM (Figure 3B)): 8.97 ± 1.03%
AnnV+/PI− (%) ([6]; K562, EE-84 40 μM (Figure 3B)): 7.71 ± 2.10%
Combined cell death (%) ([6]; K562, EE-84 40 μM (Figure 3B)): 16.68 ± 0.89%
AnnV+/PI+ (%) ([6]; K562, EE-84 50 μM (Figure 3B)): 8.25 ± 1.95%
AnnV+/PI− (%) ([6]; K562, EE-84 50 μM (Figure 3B)): 8.22 ± 3.12%
viability at 30 µM ([7]; EE-84 30 µM): 95.3 ± 0.6%
viability at 50 µM ([7]; EE-84 50 µM): 97 ± 2.7%
IC50 ([8]; RPMI 1788, 24 h): > 50 µM
IC50 ([8]; RPMI 1788, 48 h): > 50 µM
IC50 ([8]; RPMI 1788, 72 h): > 50 µM
differential toxicity RPMI-1788/K562 cells ([8]; at 40 and 50 µM, viability normal/cancer cells): significant differential toxicity
viability of RPMI 1788 cells ([8]; up to 50 µM, Figure S4B): did not significantly affect
GI50 ([9]; K562, 48 h): 32.2 ± 3.91 µM
GI50 ([9]; K562, 72 h): 19.1 ± 0.8 µM
viability at 30 µM ([10]; K562, EE-84 30 μM 48 h with Baf-A1 (40 nM) post-treatment for last 8 h, read-out: cell viability): 89%
viability at 30 µM ([10]; K562, EE-84 30 µM, 24 h, read-out: Viability (24 h)): 98 ± 1%
viability at 30 µM ([10]; K562, EE-84 30 μM, 48 h, alone, read-out: cell viability): 98.7%
viability at 50 µM ([10]; K562, EE-84 50 µM, 24 h): 96 ± 0.7%
GI50 ([11]; 24 h): > 100 µM
GI50 ([11]; 48 h): 95.6 ± 16.6 µM
GI50 ([11]; 72 h): 55.1 ± 3.28 µM
GI50 ([12]; KBM5, 24 h): > 50 µM
GI50 ([12]; KBM5, 48 h): 34 ± 1.89 µM
GI50 ([12]; KBM5, 72 h): 28.1 ± 1.68 µM
GI50 ([13]; MEG01, 24 h): > 50 µM
GI50 ([13]; MEG01, 48 h): 48.4 ± 5.02 µM
GI50 ([13]; MEG01, 72 h): 28.9 ± 1.52 µM
GI50 ([14]; 24 h): > 100 µM
GI50 ([14]; 48 h): 32.8 ± 2.25 µM
GI50 ([14]; 72 h): 29.2 ± 2.05 µM
